Data on eight molecules can be found in article PMC12736270, “Application of Data-Centric Supervised Machine Learning to Predict Phenotypic Activity Against Clinically Relevant Stages of Trypanosoma cruzi” (Pharmaceutics, 2025).

What is called CC50 is the concentration at which the toxic effect on the cells reaches its halfway point. Lower therefore signals greater toxicity to the cells.

Entries after “also recorded” stand apart in the source; their conditions may differ. Where two headings read alike, the source gives them in different places.

Data set [1] concerns trypomastigotes of the K98 strain (TcI). Put plainly: Trypanocidal effect on K98 strain trypomastigotes (motile parasite count). To be noted: 24 h of incubation. Format: cell-based, Trypanosoma cruzi. As to the method:
(§1) For the evaluation of the trypanocidal effect of selected drugs on trypomastigotes, assays were performed using culture-derived trypomastigotes of the T. cruzi Y and K98 strains. Parasites were incubated in 96-well plates at a density ranging from 5 × 10^5 to 1 × 10^6 trypomastigotes per well, in a final volume of 100 μL of MEM supplemented with 5% serum. Test compounds were previously dissolved in dimethyl sulfoxide (DMSO) and added to the wells so that the final DMSO concentration was 1%. Wells containing 1% DMSO were used as vehicle controls, and 10 μM BZN served as a positive control. In the case of the Y strain, after 24 h of incubation at 37 °C, 10 μL of resazurin solution was added to reach a final concentration of 0.01 mg/mL. Plates were incubated for approximately 4 h at 37 °C to allow fluorescence development, and readings were performed in a microplate reader with excitation and emission wavelengths of 530 nm and 590 nm, respectively. To calculate EC50 in trypomastigotes, six points were used in a concentration range of 5 to 100 μM. At least three independent assays were performed. In the case of the K98 strain, after 24 h of incubation, motile parasites were counted in a hemocytometer chamber under a light microscope. Controls consisted of RPMI-1640 supplemented with 5% FBS as well as RPMI-1640 with 0.1% DMSO. At least three independent assays were performed.

Data set [2] has as its system culture-derived trypomastigotes of the T. cruzi Y strain. Nature of the data set: Trypanocidal effect on Y strain trypomastigotes (resazurin viability). Format: cell-based, Trypanosoma cruzi. To be noted: for Activity on Y Trypomastigotes: tested at 10 µM and 50 µM, 24 h. As to the method: as §1
For orientation: The colour change of resazurin is a common sign of viable cells or microbes.

Another data set has as its system Vero cells. Put plainly: Cytotoxicity against Vero cells. Format: cell-based. To be noted: for CC50 Vero Cells: Not toxic = no toxic effect observed up to 50 µM.
For data set [3], the system named is intracellular amastigotes of the Tulahuen strain. Put plainly: Intracellular amastigote assay, Tulahuen β-galactosidase strain in Vero cells. Format: cell-based, Trypanosoma cruzi. To be noted: for EC50: Trypanosoma cruzi, TULAHUEN, read-out: Activity on Tul Amastigotes; for activity on intracellular amastigotes: Tulahuen strain, infected Vero cells. The protocol: To evaluate the trypanocidal effect of the selected compounds on intracellular amastigotes, the drug screening method reported by Buckner et al. was adapted. Vero cells were seeded at 1 × 10^4 per well on a 96-well culture plate in 100 μL MEM-5% FBS. Tulahuen trypomastigotes overexpressing the E. coli β-galactosidase protein (LacZ clone C4 strain—ATCC® PRA-330™, ATCC, Manassas, VA, USA) were used to infect Vero cell monolayers (MOI: 10:1) in triplicate. After 2 h incubation at 37 °C, the culture media were removed and non-internalized parasites were eliminated by washing each well with at least 10 vol of sterile PBS 1X, after which fresh MEM-5% FBS was added. After 16–18 h, the culture medium was replaced with culture medium bearing the compounds to be tested at the desired concentration. Test compounds were prepared in DMSO, ensuring a final DMSO concentration of 1%. Cells treated with 1% DMSO were used as vehicle controls. To determine the IC50, each drug was evaluated in at least six different concentrations (usually 0.78, 1.56, 3.13, 6.25, 12.5, and 50.0 μM). The plate was further incubated for another 72 h at 37 °C, after which the culture media were removed and cells and intracellular amastigotes were lysed in 100 μL lysis buffer (25 mM Tris pH 8, 2 mM EDTA, 2 mM DTT, 1% Triton X-100, 10% glycerol in ultrapure MQ water) for 10 min at 37 °C. Then, 100 μL 2X reaction buffer (200 mM sodium phosphate, pH 8, 2 mM MgCl2, 100 mM 2-mercaptoethanol, and 1.33 mg.mL^−1 o-nitrophenyl-β-galactoside (ONPG)) was added, and the reaction was allowed to proceed until a yellow color developed (1–2 h at 37 °C). The absorbance at 420 nm was measured in a Synergy HTX multi-mode microplate reader (Biotek Instruments, Winooski, VT, USA) and normalized to the value obtained for the infection in the absence of inhibitors. IC50 for BZN was also evaluated following this method (concentrations evaluated: 0.10, 0.20, 0.39, 0.78, 1.56, 3.13, 6.25, 12.5, and 50.0 μM). Uninfected cells were included as blanks. Each compound was tested in at least two independent experiments.

On the set-up of data set [4]: method as in PMID 37061109. To be noted: phase III clinical trial, non-alcoholic steatohepatitis; cited from earlier work.
A short description of data set [5]: Cytotoxicity against Vero cells. Format: cell-based. To be noted: African green monkey, Vero cells; Not toxic = no toxic effect observed up to 50 µM.
Where [6] appears, read: intracellular amastigotes infecting Vero cells, 72 h.
Setting [7] is: * not reliable because of the simultaneous toxic effect against Vero cells.

Regarding `C[C@]12CCC3=C4CCC(=O)C=C4CC[C@H]3[C@@H]1CC[C@@]2(O)CC#N` [Dienogest], the “EC50 on K98 Trypomastigotes” value in data set [1] is listed as “Not active”. Moreover, the “Activity on Y Trypomastigotes” value in data set [2] is on record as “did not exhibit detectable activity; also recorded: Not active”.

In the case of `CCCCOCCOc1ccc(-c2ccc3c(c2)/C=C(/C(=O)Nc2ccc([S@@+]([O-])Cc4cncn4CCC)cc2)CCCN3CC(C)C)cc1` [Cenicriviroc], in the data set with Vero cells, the “cytotoxic effects on Vero cells” value is reported as “did not present cytotoxic activity” and the “CC50 Vero Cells” value is recorded as “Not toxic”. In data set [3] (setting [6]), the EC50 amounted to 4.76 µM. Further, in data set [3], the “activity on intracellular amastigotes” value is reported as “active”. Besides, in data set [3] (intracellular amastigotes versus Vero cells), the selectivity index entry is reported as “greater than 10”. In data set [4], the “primary efficacy endpoints for fibrosis” value is “did not meet its primary efficacy endpoints”.

Turning to `CC1(C)CCC(c2ccc(Cl)cc2)=C(CN2CCN(c3ccc(C(=O)NS(=O)(=O)c4ccc(N[C@H](CCN5CCOCC5)CSc5ccccc5)c(S(=O)(=O)C(F)(F)F)c4)cc3)CC2)C1` [Navitoclax], in the data set on Vero cells, the “cytotoxic effects on Vero cells” value was “cytotoxic effects”. Further, the CC50 in data set [5] came out at 6.03 µM. Moreover, the EC50 in data set [3] (setting [7]) was determined as 2.14 µM.

As for `COCCNCc1ccc(-c2cc3nccc(Oc4ccc(NC(=S)NC(=O)Cc5ccc(F)cc5)cc4F)c3s2)nc1` [Glesatinib], the “cytotoxic effects on Vero cells” value with Vero cells is on record as “cytotoxic effects”. Besides, in data set [5], the half-maximal cytotoxic concentration (CC50) is roughly 25 µM. In data set [3] (setting [7]), the EC50 was 6.49 µM.

For the molecule `CC#C[C@]1(O)CC[C@H]2[C@@H]3CCC4=CC(=O)CCC4=C3[C@@H](c3ccc(N(C)C)cc3)C[C@@]21C` [Mifepristone], the EC50 in data set [1] (Trypanosoma cruzi) amounted to 17.9 µM. Moreover, the “reduction in parasite viability” value in data set [2] (50 µM, after 24 h of incubation, Y strain) is 69.5%. In data set [2], the “Activity on Y Trypomastigotes” value is recorded as “Active”.

As to `Cc1ccc(-n2nc(C(C)(C)C)cc2NC(=O)Nc2ccc(OCCN3CCOCC3)c3ccccc23)cc1` [Doramapimod], in the data set with Vero cells, the “cytotoxic effects on Vero cells” value is on record as “did not present cytotoxic activity” and the “CC50 Vero Cells” value was “Not toxic”. Moreover, the EC50 in data set [3] (setting [6]) was determined as 11 µM. Further, in data set [3], the “activity on intracellular amastigotes” value is “active”.

Regarding `C=CC[C@]1(O)CC[C@H]2[C@@H]3CCC4=CC(=O)CCC4=C3C=C[C@@]21C` [Altrenogest], in data set [1], the “EC50 on K98 Trypomastigotes” value was “Not active”. Further, in data set [2], the “Activity on Y Trypomastigotes” value is “did not exhibit detectable activity; also recorded: Not active”.

`CC(F)(F)c1cc(F)ccc1-c1sc2cc(O)ccc2c1Oc1ccc(/C=C/C(=O)O)cc1` [LSZ-102]: in the data set with Vero cells, the “cytotoxic effects on Vero cells” value was “did not present cytotoxic activity” and the “CC50 Vero Cells” value is recorded as “Not toxic”. Moreover, the EC50 in data set [3] (setting [6]) came out at 19.4 µM. Moreover, the “activity on intracellular amastigotes” value in data set [3] is “active”.
